Like-named read-outs stand apart in the source and are kept apart here.
Legend:
Human Calpain 1/NS1 = target: T1, Human Calpain 1/NS1 (Homo sapiens, UniProt P07384); assay: Calpain inhibition continuous fluorescence (FRET) assay, Human Calpain 1/NS1; assay type: biochemical
T1 sequence (P07384 1-714): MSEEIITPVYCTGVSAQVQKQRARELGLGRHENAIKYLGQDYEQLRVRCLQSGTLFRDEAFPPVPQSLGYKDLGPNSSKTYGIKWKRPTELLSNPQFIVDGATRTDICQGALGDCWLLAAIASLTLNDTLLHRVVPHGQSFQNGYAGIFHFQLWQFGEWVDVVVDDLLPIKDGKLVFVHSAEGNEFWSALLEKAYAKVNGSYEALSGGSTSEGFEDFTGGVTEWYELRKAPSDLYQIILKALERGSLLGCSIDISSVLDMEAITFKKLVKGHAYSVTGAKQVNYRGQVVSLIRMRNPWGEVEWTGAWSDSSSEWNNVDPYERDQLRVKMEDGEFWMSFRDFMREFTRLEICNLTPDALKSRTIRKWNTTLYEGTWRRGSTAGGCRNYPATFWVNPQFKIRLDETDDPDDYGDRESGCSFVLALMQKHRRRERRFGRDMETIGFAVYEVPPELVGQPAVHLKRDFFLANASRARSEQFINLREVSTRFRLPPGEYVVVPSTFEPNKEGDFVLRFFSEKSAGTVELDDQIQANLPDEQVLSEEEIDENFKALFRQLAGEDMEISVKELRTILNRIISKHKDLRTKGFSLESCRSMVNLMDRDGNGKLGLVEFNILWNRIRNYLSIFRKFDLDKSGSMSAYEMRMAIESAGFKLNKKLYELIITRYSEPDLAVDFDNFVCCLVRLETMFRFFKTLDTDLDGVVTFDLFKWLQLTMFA
T1 sequence (P04632 1-268 partner): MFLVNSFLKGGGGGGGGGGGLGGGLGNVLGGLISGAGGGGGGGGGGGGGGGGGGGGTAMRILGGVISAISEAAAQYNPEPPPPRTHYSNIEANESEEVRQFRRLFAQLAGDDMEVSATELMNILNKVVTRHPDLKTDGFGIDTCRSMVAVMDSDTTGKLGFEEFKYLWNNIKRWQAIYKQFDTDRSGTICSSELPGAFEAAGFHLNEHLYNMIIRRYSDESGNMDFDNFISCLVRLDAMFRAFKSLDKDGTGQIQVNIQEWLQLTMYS
Outline: (§1)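 Inhibitors were preincubated with calpain in 50 mM Tris pH 7.5, 100 mM NaCl, 1 mM DTT at 25C. Reactions were started with 5-FAM/QXL 520 FRET peptide substrate plus CaCl2 and read at 490/520 nm for 10 min. IC50s came from 4-parameter fits of slope rates (1-5 min).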

Human Calpain 2/NS1 = target: T2, Human Calpain 2/NS1 (Homo sapiens, UniProt P17655); assay: Calpain inhibition continuous fluorescence (FRET) assay, Human Calpain 2/NS1; assay type: biochemical
T2 sequence (P17655 1-700): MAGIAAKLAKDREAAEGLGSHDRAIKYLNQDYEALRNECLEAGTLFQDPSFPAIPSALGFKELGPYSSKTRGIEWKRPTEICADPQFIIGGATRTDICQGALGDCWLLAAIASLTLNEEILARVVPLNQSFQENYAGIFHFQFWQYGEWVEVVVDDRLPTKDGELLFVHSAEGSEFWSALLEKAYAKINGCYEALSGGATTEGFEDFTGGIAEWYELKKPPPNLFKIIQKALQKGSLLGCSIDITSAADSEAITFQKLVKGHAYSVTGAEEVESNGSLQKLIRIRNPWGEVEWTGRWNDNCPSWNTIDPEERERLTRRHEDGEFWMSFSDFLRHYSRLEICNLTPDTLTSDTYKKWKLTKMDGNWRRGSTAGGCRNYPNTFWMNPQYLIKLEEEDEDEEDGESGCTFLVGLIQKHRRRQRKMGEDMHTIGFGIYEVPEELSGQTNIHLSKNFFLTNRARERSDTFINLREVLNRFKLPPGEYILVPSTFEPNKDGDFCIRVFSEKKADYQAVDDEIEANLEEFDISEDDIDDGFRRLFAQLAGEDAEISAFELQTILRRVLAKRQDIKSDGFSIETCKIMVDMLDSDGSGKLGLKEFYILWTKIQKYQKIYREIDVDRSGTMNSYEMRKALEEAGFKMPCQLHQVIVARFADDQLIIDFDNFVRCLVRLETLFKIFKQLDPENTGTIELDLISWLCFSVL
T2 sequence (P04632 1-268 partner): T1 sequence (P04632 1-268 partner)
Outline: as §1

Human Calpain 9/NS1 = target: T3, Human Calpain 9/NS1 (Homo sapiens, UniProt O14815); assay: Calpain inhibition continuous fluorescence (FRET) assay, Human Calpain 9/NS1; assay type: biochemical
T3 sequence (O14815 1-690): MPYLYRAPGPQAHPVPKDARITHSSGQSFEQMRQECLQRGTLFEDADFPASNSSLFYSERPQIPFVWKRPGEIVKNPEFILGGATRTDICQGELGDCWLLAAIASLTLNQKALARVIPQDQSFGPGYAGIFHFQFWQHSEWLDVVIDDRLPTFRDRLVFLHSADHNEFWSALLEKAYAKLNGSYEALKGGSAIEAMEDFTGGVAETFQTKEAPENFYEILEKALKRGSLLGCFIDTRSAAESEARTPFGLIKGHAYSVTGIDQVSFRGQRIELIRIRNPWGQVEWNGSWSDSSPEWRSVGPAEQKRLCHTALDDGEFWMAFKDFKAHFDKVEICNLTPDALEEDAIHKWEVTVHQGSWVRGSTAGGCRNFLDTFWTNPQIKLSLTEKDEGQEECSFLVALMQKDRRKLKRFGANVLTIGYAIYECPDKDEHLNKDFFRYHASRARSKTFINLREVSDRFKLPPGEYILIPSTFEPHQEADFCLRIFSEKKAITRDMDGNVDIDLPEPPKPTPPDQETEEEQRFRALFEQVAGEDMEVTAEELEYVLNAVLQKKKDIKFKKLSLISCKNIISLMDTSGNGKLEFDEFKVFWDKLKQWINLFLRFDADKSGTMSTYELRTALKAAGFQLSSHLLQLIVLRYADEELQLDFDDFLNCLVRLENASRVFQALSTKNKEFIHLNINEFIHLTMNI
T3 sequence (P04632 1-268 partner): T1 sequence (P04632 1-268 partner)
Outline: as §1

[1] = test system: Calpain activity in SH-SY5Y cells (SBDP-150); assay: SH-SY5Y Spectrin western blot assay (SBDP-150 breakdown product, A23187-induced); assay type: cell-based; details: Homo sapiens, read-out: SH-SY5Y Spectrin IC50
[2] = test system: Calpain activity in SH-SY5Y cells; assay: SH-SY5Y + AMC fluorescence assay (Suc-LLVY-AMC substrate); assay type: cell-based
[3] = Column A, read-out: Human Calpain 1/NS1 IC50
[4] = Column B, read-out: Human Calpain 2/NS1 IC50
[5] = Column C, read-out: Human Calpain 9/NS1 IC50
[6] = Column D, SH-SY5Y cells, A23187-induced SBDP-150
[7] = Column E, read-out: SH-SY5Y + AMC IC50
[8] = read-out: Human Calpain 1/NS1 IC50
[9] = read-out: Human Calpain 2/NS1 IC50
[10] = read-out: Human Calpain 9/NS1 IC50
[11] = SH-SY5Y cells, A23187-induced SBDP-150, western blot

SMILES | IC50 (Human Calpain 1/NS1; [3]) [µM] | IC50 (Human Calpain 2/NS1; [4]) [µM] | IC50 (Human Calpain 9/NS1; [5]) [µM] | IC50 [1, 6] [µM] | IC50 [2, 7] [µM] | other results
Cn1cc(C(=O)N[C@@H](Cc2ccccc2)C(=O)C(N)=O)c(-c2cccc(F)c2)n1 [Compound 178, (S)—N-(4-amino-3,4-dioxo-1-phenylbutan-2-yl)-3-(3-fluorophenyl)-1-methyl-1H-pyrazole-4-carboxamide] | < 3 | < 3 | < 3 | < 10 | < 10 | –
NC(=O)C(=O)[C@H](Cc1ccccc1)NC(=O)c1cncn1-c1nc2ccccc2s1 [Compound 50, (S)—N-(4-amino-3,4-dioxo-1-phenylbutan-2-yl)-1-(benzo[d]thiazol-2-yl)-1H-imidazole-5-carboxamide] | < 3 | < 3 | < 3 | < 10 | > 25 | –
NC(=O)C(=O)C(Cc1ccccc1)NC(=O)c1nsnc1-c1cccc2c1OC(F)(F)O2 (centres unmarked) [Compound 578, N-(4-amino-3,4-dioxo-1-phenylbutan-2-yl)-4-(2,2-difluorobenzo[d][1,3]dioxol-4-yl)-1,2,5-thiadiazole-3-carboxamide] | – | – | – | – | – | IC50 (Human Calpain 1/NS1; [8]): < 3 µM; IC50 (Human Calpain 2/NS1; [9]): < 3 µM; IC50 (Human Calpain 9/NS1; [10]): < 3 µM; IC50 [1, 11]: < 10 µM; IC50 ([2]; read-out: SH-SY5Y + AMC IC50): < 10 µM
Cc1cc(C(=O)N[C@@H](Cc2ccccc2)C(=O)C(N)=O)n(-c2ccc(-c3cccc(F)c3)cc2)n1 [Compound 216, (S)—N-(4-amino-3,4-dioxo-1-phenylbutan-2-yl)-1-(3′-fluoro-[1,1′-biphenyl]-4-yl)-3-methyl-1H-pyrazole-5-carboxamide] | < 3 | < 3 | < 3 | < 10 | > 25 | –
Cc1cc(C(=O)N[C@@H](Cc2ccccc2)C(=O)C(N)=O)n(-c2ccc(CNC(=O)Oc3ccccc3)cc2)n1 [Compound 162, Phenyl (S)-(4-(5-((4-amino-3,4-dioxo-1-phenylbutan-2-yl)carbamoyl)-3-methyl-1H-pyrazol-1-yl)benzyl)carbamate] | – | – | – | – | – | IC50 (Human Calpain 1/NS1): < 3 µM; IC50 (Human Calpain 2/NS1): < 3 µM; IC50 (Human Calpain 9/NS1): < 3 µM; IC50 ([1]; SH-SY5Y): > 25 µM; IC50 ([2]; read-out: SH-SY5Y + AMC IC50, Column E): > 25 µM
NC(=O)C(=O)C(Cc1ccccc1)NC(=O)c1nsnc1Br (centres unmarked) [Compound 366, N-(4-amino-3,4-dioxo-1-phenylbutan-2-yl)-4-bromo-1,2,5-thiadiazole-3-carboxamide] | – | – | – | – | – | IC50 (Human Calpain 1/NS1; [8]): < 3 µM; IC50 (Human Calpain 2/NS1; [9]): < 3 µM; IC50 (Human Calpain 9/NS1; [10]): < 3 µM; IC50 [1, 11]: 10 to 25 µM; IC50 ([2]; read-out: SH-SY5Y + AMC IC50): < 10 µM
Cc1nc(-c2ccccn2)c(C(=O)N[C@@H](Cc2ccccc2)C(=O)C(N)=O)o1 [Compound 266, (S)—N-(4-amino-3,4-dioxo-1-phenylbutan-2-yl)-2-methyl-4-(pyridin-2-yl)oxazole-5-carboxamide] | < 3 | < 3 | < 3 | > 25 | > 25 | –

— patent US11339130B1 (Blade Therapeutics, Inc., priority 2016, dated 2022)
